Test results from patent publication US20090220429A1, “METHOD AND A SYSTEM FOR ASSESSING NEUROLOGICAL CONDITIONS” (METIS CURA EHF, priority 2005, published 2009).

Tests used:
[1] = system: subjects with dementia of the Alzheimer's type (AD group) and healthy control group; experiment: Clinical trial: EEG recorded before and after intravenous scopolamine as probe compound, feature pair classification of AD group versus control group; assay type: in vivo, human; details: for number of feature pair classifiers scoring 80% or better: features 33-48 (ratios before/after administration), P3-P4 montage, leave one out
Text: The effectiveness of the invention has been verified in a clinical trial. The participants in the trial were divided in two groups. One group consisted of 10 elderly subjects that have been diagnosed with, mild to moderate, dementia of the Alzheimer's type (AD group). A second age-matched group of 10 healthy individuals (i.e. non-AD individuals) was included as a control group.
The AD-group of participants consisted of patients in follow-up surveillance in the memory clinic at the Department of Geriatrics in Landspitali University Hospital, Reykjavik, Iceland. The group consisted of patients with Alzheimer's Disease (AD) (N=10) according to ICD-10. The other group consisted of normal Control participants (N=10), who were recruited from relatives of demented patients attending a day-care center.
To be eligible for participation in the study the subjects had to be in the range of 60-80 years of age, in good general health as determined by standard physical examination, with no acute changes on ECG. Exclusion criteria included smoking or any other use of tobacco (also excluding those that had stopped tobacco use about a week or less prior to the trial), treatment with neuroleptics and benzodiazepines, impaired liver- or kidney function, hypersensitivity to scopolamine, indication of drug, alcohol or medical abuse, glaucoma or possibility of raised intraocular pressure with administration of scopolamine. Prior to the screening visit the subjects were interviewed by phone. The AD subjects were selected from hospital records. All the AD patients in the follow-up program at the Memory Clinic were being treated with anti-dementia drugs. To minimize the variation between the subjects in the trial, the participants in the AD-group were selected from patients that were being treated with the same cholinesterase-inhibitor, Reminyl® (galantamine HBr).
Electroencephalographic neurophysiological signals were recorded from each of the subjects. The recording protocol was divided into two parts 105, 107 or sessions which were identical. In between the sessions the provided substance 101 substance scopolamine was administered intravenously, see FIG. 10. Within each section a two-minute period was recorded while the subject was instructed to be at rest with eyes closed. The data collected from these periods were used to estimate the individual features. The substance scopolamine was chosen based on its effects perturbing biophysical pathways that are known to deteriorate in subjects suffering from Alzheimer's disease. […]
The electroencephalographic signals were recorded using computerized measuring equipment, see FIG. 11. […]
These features were evaluated using a part of the first section where the subjects were at rest with eyes closed. […]

[2] = system: early DAT subjects compared to controls; details: 1-3 min post-injection; no significant group difference at baseline; cited from earlier work

SMILES | classification performance ([1]; 3-NN scheme, FIG. 15, response feature set versus pre-administration feature set) | number of feature pair classifiers scoring 80% or better ([1]; 3-NN scheme, 4 with pre-administration features 1-16) | number of feature pair classifiers scoring 80% or better ([1]; SVM classification scheme, 5 with pre-administration features 1-16) | separation between the AD and control groups for a feature pair ([1]; ratio of feature values pre- and post-administration (FIG. 14) versus features before administration (FIG. 13)) | beta power response in the frontal region, early DAT subjects compared to controls [2]
CN1[C@@H]2C[C@@H](OC(=O)[C@H](CO)c3ccccc3)C[C@H]1[C@@H]1O[C@@H]12 [scopolamine] | substantially enhanced classification performance | 29 | 23 | significantly better separation between the groups | 
CCCC(C)C1(CC)C(=O)NC(=S)NC1=O (centres unmarked) [thiopental] |  |  |  |  | significantly smaller beta power response
